target: JAK1 (Homo sapiens (Human), UniProt P23458); assay: Jak Biochemical HTRF Assay, JAK1; conditions: HTRF biochemical assay, GST-tagged catalytic domain; top concentration tested […]; read-out: JAK1 IC50
From the text: Jak Biochemical HTRF Assay Protocol
Subsequent reagent additions employed an Agilent Bravo.

Chain of JAK1 (P23458 875-1153): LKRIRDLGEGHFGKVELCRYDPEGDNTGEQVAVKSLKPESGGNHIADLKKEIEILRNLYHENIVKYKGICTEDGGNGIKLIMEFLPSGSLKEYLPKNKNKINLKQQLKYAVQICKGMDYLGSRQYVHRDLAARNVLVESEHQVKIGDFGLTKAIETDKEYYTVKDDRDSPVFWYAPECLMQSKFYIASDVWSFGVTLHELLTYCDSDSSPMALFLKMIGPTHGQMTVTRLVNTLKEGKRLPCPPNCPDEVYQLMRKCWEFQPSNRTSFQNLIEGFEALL

Compound | IC50
CC(C)(C)OC(=O)N1CCC(CC#N)(n2cc(C(N)=O)c(Nc3ccnc(C(F)(F)F)c3)n2)CC1 [Example 9-23, tert-butyl 4-(4-carbamoyl-3-{[2-(trifluoromethyl)pyridin-4-yl]amino}-1H-pyrazol-1-yl)-4-(cyanomethyl)piperidine-1-carboxylate] | 0.4 nM
N#CCC1(n2cc(C(N)=O)c(Nc3ccc(F)cc3)n2)CCSCC1 [Example 7, 1-(4-(Cyanomethyl)tetrahydro-2H-thiopyran-4-yl)-3-((4-fluorophenyl)amino)-1H-pyrazole-4-carboxamide] | 8 nM
CC(C)(O)c1cccc(N2CCC(CC#N)(n3cc(C(N)=O)c(Nc4ccc(F)cc4)n3)CC2)n1 [Example 3-7, 1-{4-(cyanomethyl)-1-[6-(1-hydroxy-1-methylethyl)pyridin-2-yl]piperidin-4-yl}-3-[(4-fluorophenyl)amino]-1H-pyrazole-4-carboxamide] | 0.3 nM
N#CCC1(n2cc(C(N)=O)c(Nc3ccc(F)cc3)n2)CCN(c2cncnc2)CC1 [Example 3-24, 1-[4-(cyanomethyl)-1-pyrimidin-5-ylpiperidin-4-yl]-3-[(4-fluorophenyl)amino]-1H-pyrazole-4-carboxamide] | 0.1 nM
N#CCC1(n2cc(C(N)=O)c(Nc3ccc(OC4CCC4)nc3)n2)CCN(C(=O)OCC(F)F)CC1 [Example 9-37, 2,2-difluoroethyl 4-(4-carbamoyl-3-{[6-(cyclobutyloxy)pyridin-3-yl]amino}-1H-pyrazol-1-yl)-4-(cyanomethyl)piperidine-1-carboxylate] | 0.2 nM
N#CCC1(n2cc(C(N)=O)c(Nc3ccnc(F)c3)n2)CCN(CCc2ccccc2)CC1 [Example 22-64, 1-[4-(cyanomethyl)-1-(2-phenylethyl)piperidin-4-yl]-3-[(2-fluoropyridin-4-yl)amino]-1H-pyrazole-4-carboxamide] | 4 nM
COc1cc(Nc2nn(C3(CC#N)CCN(C(=O)OC(C)(C)C)CC3)cc2C(N)=O)ccn1 [Example 9-19, tert-butyl 4-{4-carbamoyl-3-[(2-methoxypyridin-4-yl)amino]-1H-pyrazol-1-yl}-4-(cyanomethyl)piperidine-1-carboxylate] | 6 nM
N#CCC1(n2cc(C(N)=O)c(Nc3ccccc3)n2)CCN(Cc2cc3ccccc3o2)CC1 [Example 21-20, 1-[1-(1-benzofuran-2-ylmethyl)-4-(cyanomethyl)piperidin-4-yl]-3-(phenylamino)-1H-pyrazole-4-carboxamide] | 10 nM
N#CCC1(n2cc(C(N)=O)c(Nc3ccc(F)cc3)n2)CCN(c2cncc3ccccc23)CC1 [Example 3-2, 1-[4-(cyanomethyl)-1-isoquinolin-4-ylpiperidin-4-yl]-3-[(4-fluorophenyl)amino]-1H-pyrazole-4-carboxamide] | 6 nM
N#CC[C@]1(n2cc(C(N)=O)c(Nc3ccnc(F)c3)n2)CC[C@@H](NS(=O)(=O)c2cccc(F)c2)CC1 [Example 42, cis-1-(1-(Cyanomethyl)-4-(3-fluorophenylsulfonamido)cyclohexyl)-3-((2-fluoropyridin-4-yl)amino)-1H-pyrazole-4-carboxamide] | 8 nM
CC(C)(C)OC(=O)C1CCC(CC#N)(n2cc(C(N)=O)c(Nc3ccccc3)n2)CC1 (stereo not shown) [Example 2-18, tert-butyl 4-[4-carbamoyl-3-(phenylamino)-1H-pyrazol-1-yl]-4-(cyanomethyl) cyclohexanecarboxylate] | 3 nM

Other lines, results leading:

IC50 | Compound
0.8 nM | N#CCC1(n2cc(C(N)=O)c(Nc3ccc(F)cc3)n2)CCC(Nc2ccc(F)c(F)c2)CC1 (stereo not drawn) [Example 40-35, Cis or trans 1-{1-(cyanomethyl)-4-[(3,4-difluorophenyl)amino]cyclohexyl}-3-[(4-fluorophenyl)amino]-1H-pyrazole-4-carboxamide]
12 nM | N#CCC1(n2cc(C(N)=O)c(Nc3ccccc3)n2)CCN(C(=O)c2cnccn2)CC1 [Example 34-11, 1-[4-(cyanomethyl)-1-(pyrazin-2-ylcarbonyl)piperidin-4-yl]-3-(phenylamino)-1H-pyrazole-4-carboxamide]
38 nM | CCOC(=O)C(C)NC(=O)N1CC(CC#N)(n2cc(C(N)=O)c(Nc3ccccc3)n2)C1 (stereo not shown) [Example 38-9, ethyl N-({3-[4-carbamoyl-3-(phenylamino)-1H-pyrazol-1-yl]-3-(cyanomethyl)azetidin-1-yl}carbonyl)alaninate]
18 nM | N#CCC1(n2cc(C(N)=O)c(Nc3ccc(F)cc3)n2)CCC(NCC(F)(F)F)CC1 (stereo not drawn) [Example 40-101, Cis or trans 1-{1-(cyanomethyl)-4-[(2,2,2-trifluoroethyl)amino]cyclohexyl}-3-[(4-fluorophenyl)amino]-1H-pyrazole-4-carboxamide]
0.08 nM | N#CCC1(n2cc(C(N)=O)c(Nc3ccc(S(=O)(=O)C(F)F)cc3)n2)CCC(N2CC(F)C2)CC1 (stereo not drawn) [Example 40-105, Cis or trans 1-[1-(cyanomethyl)-4-(3-fluoroazetidin-1-yl)cyclohexyl]-3-({4-[(difluoromethyl)sulfonyl]phenyl}amino)-1H-pyrazole-4-carboxamide]
0.1 nM | N#CCC1(n2cc(C(N)=O)c(Nc3ccc(C(F)(F)F)cc3)n2)CCC(N2CC(F)C2)CC1 (stereo not shown) [Example 39-2, 1-[1-(cyanomethyl)-4-(3-fluoroazetidin-1-yl)cyclohexyl]-3-{[4-(trifluoromethyl)phenyl]amino}-1H-pyrazole-4-carboxamide]
6 nM | CC(OC(=O)N1CCC(CC#N)(n2cc(C(N)=O)c(Nc3ccc(F)cc3)n2)CC1)C1CC1 (stereo not shown) [Example 30-12, 1-cyclopropylethyl 4-(4-carbamoyl-3-(4-fluorophenylamino)-1H-pyrazol-1-yl)-4-(cyanomethyl)piperidine-1-carboxylate]
0.1 nM | N#CCC1(n2cc(C(N)=O)c(Nc3ccc(F)cc3)n2)CCN(C(=O)CC(F)(F)F)CC1 [Example 35-1, 1-(4-(Cyanomethyl)-1-(3,3,3-trifluoropropanoyl)piperidin-4-yl)-3-(4-fluorophenylamino)-1H-pyrazole-4-carboxamide]
0.05 nM | CC(F)(F)C(=O)N1CC[C@@](CC#N)(n2cc(C(N)=O)c(Nc3ccc(F)nc3)n2)[C@@H](F)C1 (single isomer, unassigned) [Example 43-4, 1-((3R,4R or 3S,4S)-4-(cyanomethyl)-1-(2,2-difluoropropanoyl)-3-fluoropiperidin-4-yl)-3-((6-fluoropyridin-3-yl)amino)-1H-pyrazole-4-carboxamide]
2 nM | CCc1ccc(NC(=O)N2CC(CC#N)(n3cc(C(N)=O)c(Nc4ccccc4)n3)C2)cc1 [Example 38-34, 1-{3-(cyanomethyl)-1-[(4-ethylphenyl)carbamoyl]azetidin-3-yl}-3-(phenylamino)-1H-pyrazole-4-carboxamide]
375 nM | N#CCC1(n2cc(C(N)=O)c(Nc3ccccc3)n2)CN(C(=O)OCCc2cccc3ccccc23)C1 [Example 30-54, 2-naphthalen-1-ylethyl 3-[4-carbamoyl-3-(phenylamino)-1H-pyrazol-1-yl]-3-(cyanomethyl)azetidine-1-carboxylate]
1 nM | N#CCC1(n2cc(C(N)=O)c(Nc3ccc(F)cc3)n2)CCC(NCC(F)(F)F)CC1 (stereo not drawn) [Example 40-98, Cis or trans 1-{1-(cyanomethyl)-4-[(2,2,2-trifluoroethyl)amino]cyclohexyl}-3-[(4-fluorophenyl)amino]-1H-pyrazole-4-carboxamide]
72 nM | CN1CCN(CCOC(=O)N2CC(CC#N)(n3cc(C(N)=O)c(Nc4ccccc4)n3)C2)CC1 [Example 30-72, 2-(4-methylpiperazin-1-yl)ethyl 3-[4-carbamoyl-3-(phenylamino)-1H-pyrazol-1-yl]-3-(cyanomethyl)azetidine-1-carboxylate]
10 nM | N#CCC1(n2cc(C(N)=O)c(Nc3ccnc(F)c3)n2)CCC(NCc2cccc(O)c2)CC1 (stereo not drawn) [Example 41-5, Cis or trans 1-{1-(cyanomethyl)-4-[(3-hydroxybenzyl)amino]cyclohexyl}-3-[(2-fluoropyridin-4-yl)amino]-1H-pyrazole-4-carboxamide]
67 nM | N#CCC1(n2cc(C(N)=O)c(Nc3ccc(S(=O)(=O)C(F)F)cc3)n2)CCC(N2CC(F)C2)CC1 (stereo not drawn) [Example 40-91, Cis or trans 1-[1-(cyanomethyl)-4-(3-fluoroazetidin-1-yl)cyclohexyl]-3-({4-[(difluoromethyl)sulfonyl]phenyl}amino)-1H-pyrazole-4-carboxamide]
13 nM | Cc1ccc(F)cc1NC(=O)N1CC(CC#N)(n2cc(C(N)=O)c(Nc3ccccc3)n2)C1 [Example 38-38, 1-{3-(cyanomethyl)-1-[(5-fluoro-2-methylphenyl)carbamoyl]azetidin-3-yl}-3-(phenylamino)-1H-pyrazole-4-carboxamide]
25 nM | N#CCC1(n2cc(C(N)=O)c(Nc3ccc(F)cc3)n2)CCC(NCc2ccc(C#N)cc2)CC1 (stereo not drawn) [Example 40-97, Cis or trans 1-{4-[(4-cyanobenzyl)amino]-1-(cyanomethyl)cyclohexyl}-3-[(4-fluorophenyl)amino]-1H-pyrazole-4-carboxamide]
8 nM | N#CCC1(n2cc(C(N)=O)c(Nc3ccnc(F)c3)n2)CCC(Nc2ccccc2F)CC1 (stereo not drawn) [Example 40-24, Cis or trans 1-{1-(cyanomethyl)-4-[(2-fluorophenyl)amino]cyclohexyl}-3-[(2-fluoropyridin-4-yl)amino]-1H-pyrazole-4-carboxamide]

same assay, conditions: read-out: JAK1 IC50

Compound | IC50
N#CCC1(n2cc(C(N)=O)c(Nc3ccc(S(=O)(=O)C(F)F)cc3)n2)CCC(Nc2cccnc2)CC1 (stereo not drawn) [Example 40-8, Cis or trans 1-[1-(cyanomethyl)-4-(pyridin-3-ylamino)cyclohexyl]-3-({4-[(difluoromethyl)sulfonyl]phenyl}amino)-1H-pyrazole-4-carboxamide] | 0.3 nM
N#CCC1(n2cc(C(N)=O)c(Nc3ccc(S(=O)(=O)C(F)F)cc3)n2)CCC(Nc2ccccc2O)CC1 (stereo not drawn) [Example 40-48, Cis or trans 1-{1-(cyanomethyl)-4-[(2-hydroxyphenyl)amino]cyclohexyl}-3-({4-[(difluoromethyl)sulfonyl]phenyl}amino)-1H-pyrazole-4-carboxamide] | 0.4 nM
